From article PMC4535766, “Antiprotozoal Activity Profiling of Approved Drugs: A Starting Point toward Drug Repositioning” (PLoS ONE, 2015)
Counter-ions that a name gives are not always drawn. Like-named read-outs stand apart in the source and are kept apart here.

Tests used:
[1] = system: intracellular amastigotes of L. donovani strain MHOM-ET-67/L82; test: Activity against Leishmania donovani intracellular amastigotes in mouse peritoneal macrophages; conditions: Leishmania donovani, Peritoneal macrophage, in Mus musculus
Method: After 24 h 1.2 x 10^5 amastigote L. donovani in 100 μl were added. The amastigotes were taken from an axenic culture grown at pH 5.4. Four hours later, the medium containing free amastigote forms was removed and replaced by fresh medium. The next day the medium was replaced by medium with or without a serial drug dilution of seven 3-fold dilution steps covering a range from 30 to 0.04 μg/ml. Parasite growth in the presence of the drug was compared to control wells. After 96 h of incubation, the medium was removed and the slides fixed with methanol for 10 min followed by staining with a 10% Giemsa solution. Infected and non-infected macrophages were counted for the control cultures and those exposed to the serial drug dilutions. The infection rates were determined. The results were expressed as a percentage reduction in parasite burden compared to control wells, and the IC50 was calculated by linear regression analysis. The collection of mouse peritoneal macrophages was done at the Swiss Tropical and Public Health Institute (Basel) according to the rules and regulations for the protection of animal rights ("Tierschutzverordnung") of the Swiss "Bundesamt für Veterinärwesen".

[2] = system: T. b. rhodesiense strain STIB 900, trypomastigotes; test: In vitro activity against T. b. rhodesiense, serial drug dilution assay; conditions: for IC50: Trypanosoma brucei
Method: (§1) Drug stock solutions (10mg/ml) were in DMSO (100%). […] Selectivity index (SI) was calculated as IC50 L6 cells/IC50 parasite.

[3] = system: axenic amastigotes of L. donovani, strain MHOM-ET-67/L82; test: In vitro activity against L. donovani axenic amastigotes, serial drug dilution assay; assay type: cell-based, Leishmania donovani; conditions: Leishmania donovani
Method: as §1

[4] = Cytotoxicity on macrophages infected with L. donovani; assay type: cell-based, mouse; conditions: mouse
P. falciparum strain K1 = test: In vitro activity against P. falciparum, serial drug dilution assay; conditions: for IC50: Plasmodium falciparum; for selectivity ratio: rat
Method: as §1

[5] = system: T. cruzi, strain Tulahuen C4, intracellular amastigotes; test: microbe, parasite or virus in culture; conditions: for IC50: Trypanosoma cruzi, TULAHUEN
Method: as §1

in vitro = conditions: rat
Method: as §1

[6] = read-out: L. don. intracell IC50
[7] = L. donovani axenic amastigotes, read-out: L. don. axen. IC50
[8] = infected macrophages, read-out: Cytotox. mac.inf. IC50
[9] = 96 h, read-out: IC50 L. don. intracell
[10] = axenic amastigotes, strain MHOM-ET-67/L82, means of two independent assays, read-out: IC50 L. don. axen.
[11] = macrophages infected with L. donovani, read-out: IC50 Cytotox. mac.inf.
[12] = mouse peritoneal macrophages infected with L. donovani, macrophages infected with L. donovani, read-out: IC50 Cytotox. mac.inf.
[13] = Selectivity index: IC50 Cytotoxicity L6/ IC50 P. falciparum
[14] = L6 cells, IC50 Cytotox. L6, L6 cells, means of two independent assays

Row | Structure (SMILES) | IC50 [1, 9] [µM] | IC50 ([2]; read-out: IC50 T. b. rhod.) [µM] | IC50 [3, 10] [µM] | IC50 at 96 h [4, 11] [µM] | IC50 (P. falciparum strain K1; K1, read-out: IC50 P. falc. K1) [µM] | IC50 ([5]; read-out: IC50 T. cruzi) [µM] | IC50 (in vitro; IC50 Cytotox. L6) [µM] | also measured
1 | C[C@H]1c2cccc(O)c2C(=O)C2=C(O)[C@]3(O)C(=O)C(C(N)=O)=C(O)[C@@H](N(C)C)[C@@H]3[C@@H](O)[C@@H]21 [Doxycycline] | – | – | – | – | – | – | – | IC50 [1, 6]: > 22.5 µM; IC50 ([2]; read-out: T. b. rhod. IC50): 63.7 µM; IC50 [3, 7]: 24.1 µM; MCC at 96 h [4, 8]: 67.5 µM; IC50 (P. falciparum strain K1; K1, read-out: P. falc. IC50): 4.48 µM; IC50 ([5]; read-out: T. cruzi IC50): 39.1 µM; IC50 (in vitro; Cytotox. L6 IC50): 14.5 µM
2 | CCn1cc(C(=O)O)c(=O)c2cc(F)c(N3CCNCC3)nc21 [Enoxacin] | – | – | – | – | – | – | – | IC50 [1, 6]: > 93.7 µM; IC50 ([2]; read-out: T. b. rhod. IC50): 113 µM; IC50 [3, 7]: > 312 µM; IC50 at 96 h [4, 8]: > 93.7 µM; IC50 (P. falciparum strain K1; K1, read-out: P. falc. IC50): 76.8 µM; IC50 ([5]; read-out: T. cruzi IC50): 163 µM; IC50 (in vitro; Cytotox. L6 IC50): 25 µM
3 | CC[C@H]1OC(=O)[C@H](C)[C@@H](O[C@H]2C[C@@](C)(OC)[C@@H](O)[C@H](C)O2)[C@H](C)[C@@H](O[C@@H]2O[C@H](C)C[C@H](N(C)C)[C@H]2O)[C@](C)(O)C[C@@H](C)C(=O)[C@H](C)[C@@H](O)[C@]1(C)O [Erythromycine (Hydrate), Erythromycine] | > 39.9 | 72.1 | > 133 | > 39.9 | 9.91 | 114 | 92.2 | –
4 | CC(=O)OCC(CCn1cnc2cnc(N)nc21)COC(C)=O [Famciclovir] | > 93.4 | 225 | > 311 | > 93.4 | > 156 | 207 | 180 | –
5 | CC(=O)[C@H]1CC[C@H]2[C@@H]3CC[C@H]4C[C@](C)(O)CC[C@]4(C)[C@H]3CC[C@]12C [Ganaxolone] | – | – | – | – | – | – | – | IC50 [1, 6]: > 90.2 µM; IC50 ([2]; read-out: T. b. rhod. IC50): 5.47 µM; IC50 [3, 7]: 42.5 µM; IC50 at 96 h [4, 8]: > 90.2 µM; IC50 (P. falciparum strain K1; K1, read-out: P. falc. IC50): > 15 µM; IC50 ([5]; read-out: T. cruzi IC50): 65 µM; IC50 (in vitro): 23.5 µM
6 | Nc1nc(O)c2ncn(COC(CO)CO)c2n1 [Ganciclovir] | > 118 | 252 | > 392 | > 118 | > 196 | 240 | 179 | –
7 | COc1ccc(Cl)cc1C(=O)NCCc1ccc(S(=O)(=O)NC(=O)NC2CCCCC2)cc1 [Glybenclamide] | – | – | – | – | – | – | – | IC50 [1, 6]: > 60.7 µM; IC50 ([2]; read-out: T. b. rhod. IC50): 87.7 µM; IC50 [3, 7]: 9.8 µM; IC50 at 96 h [4, 8]: > 60.7 µM; IC50 (P. falciparum strain K1; K1, read-out: P. falc. IC50): 38.3 µM; IC50 ([5]; read-out: T. cruzi IC50): 93.9 µM; IC50 (in vitro): 116 µM
8 | COC1=CC(=O)C[C@@H](C)[C@]12Oc1c(Cl)c(OC)cc(OC)c1C2=O [Griseofulvin] | – | – | – | – | – | – | – | IC50 [1, 6]: > 85 µM; IC50 ([2]; read-out: T. b. rhod. IC50): 40 µM; IC50 [3, 7]: 87 µM; IC50 at 96 h [4, 8]: > 85 µM; IC50 (P. falciparum strain K1; K1, read-out: P. falc. IC50): 75.1 µM; IC50 ([5]; read-out: T. cruzi IC50): 87.3 µM; IC50 (in vitro; Cytotox. L6 IC50): 20.5 µM
9 | CC(C)(C)NC(=O)[C@@H]1CN(Cc2cccnc2)CCN1C[C@@H](O)C[C@@H](Cc1ccccc1)C(=O)N[C@H]1c2ccccc2C[C@H]1O [Indinavir (Sulfate), Indinavir] | > 42.3 | 48.2 | > 141 | > 42.3 | 6.03 | 93.5 | – | IC50 (in vitro): > 141 µM
10 | NNC(=O)c1ccncc1 [Isoniazide] | > 219 | > 729 | > 729 | > 219 | 246 | 383 | 602 | –
11 | CN1CCC(=C2c3ccccc3CC(=O)c3sccc32)CC1 [Ketotifen] | > 97 | 15.2 | > 291 | – | 0.75 | 141 | – | IC50 at 96 h [4, 12]: > 97 µM; Activity against P. falciparum (in words) (P. falciparum strain K1; in vitro): selective activities; selectivity ratio (P. falciparum strain K1; [13]): 196; IC50 (in vitro; [14]): 147 µM
12 | Cc1oncc1C(=O)Nc1ccc(C(F)(F)F)cc1 [Leflunomide] | > 111 | 213 | 21.8 | > 111 | > 18.5 | 152 | 124 | –
13 | CCC[C@@H]1C[C@@H](C(=O)N[C@@H]([C@H]2O[C@H](SC)[C@H](O)[C@@H](O)[C@H]2O)[C@@H](C)O)N(C)C1 [Lincomycin] | > 73.8 | > 221 | > 221 | > 73.8 | 7.08 | > 221 | > 221 | –
14 | Cc1cccc(C)c1OCC(=O)N[C@@H](Cc1ccccc1)[C@@H](O)C[C@H](Cc1ccccc1)NC(=O)[C@H](C(C)C)N1CCCNC1=O [Lopinavir] | > 47.7 | 10.8 | 11.8 | > 47.7 | 1.92 | 15.4 | 18.9 | –
15 | CCN(CCCCOC(=O)c1ccc(OC)c(OC)c1)C(C)Cc1ccc(OC)cc1 (stereo not shown) [Mebeverine] | 54.9 | 54.2 | > 210 | > 69.8 | 1.74 | 3.89 | 70.8 | selectivity ratio ([5]; rat, Selectivity index: IC50 Cytotoxicity L6/ IC50 T. cruzi): 18
16 | OC(c1cc(C(F)(F)F)nc2c(C(F)(F)F)cccc12)C1CCCCN1 (stereo not shown) [Mefloquine (Hydrochloride), Mefloquine] | – | – | – | – | 0.002 | – | 3.25 | IC50 [1, 6]: 2.41 µM; IC50 ([2]; read-out: T. b. rhod. IC50): 0.53 µM; IC50 [3, 7]: 38.6 µM; MCC at 96 h [4, 8]: 7.23 µM; IC50 (P. falciparum strain K1; K1, read-out: P. falc. IC50): 0.0024 µM; selectivity ratio (P. falciparum strain K1; [13]): 1350; IC50 ([5]; read-out: T. cruzi IC50): 4.48 µM
17 | Cc1ncc([N+](=O)[O-])n1CCO [Metronidazole] | > 175 | 338 | 491 | > 175 | 277 | 279 | 339 | Activity against T. b. rhodesiense (in words) ([2]; in vitro): inactive
18 | CN(C)c1ccc(O)c2c1C[C@H]1C[C@H]3[C@H](N(C)C)C(O)=C(C(N)=O)C(=O)[C@@]3(O)C(O)=C1C2=O [Minocycline] | – | – | – | – | – | – | – | IC50 [1, 6]: > 21.9 µM; IC50 ([2]; read-out: T. b. rhod. IC50): 36.6 µM; IC50 [3, 7]: 45.7 µM; IC50 at 96 h [4, 8]: > 21.9 µM; IC50 (P. falciparum strain K1; K1, read-out: P. falc. IC50): 3.58 µM; IC50 ([5]; read-out: T. cruzi IC50): 22.3 µM; IC50 (in vitro; Cytotox. L6 IC50): 9.42 µM
19 | Cc1c(O)cccc1C(=O)N[C@@H](CSc1ccccc1)[C@H](O)CN1C[C@H]2CCCC[C@H]2C[C@H]1C(=O)NC(C)(C)C [Nelfinavir] | 20.2 | 20.6 | 9.62 | > 52.8 | 10.4 | 10.2 | 12.1 | –
20 | NC(=O)c1cccnc1 [Nicotinamide] | > 246 | > 737 | > 737 | > 246 | > 40.9 | > 737 | > 737 | –
21 | CNCCC=C1c2ccccc2CCc2ccccc21 [Nortryptyline] | > 11.4 | 1.17 | > 342 | 38 | 0.58 | 22.9 | – | Selectivity index: IC50 Cytotoxicity L6/ IC50 T. b. rhodesiense ([2]; rat): 24; selectivity ratio ([2]; rat, Selectivity index: IC50 Cytotoxicity L6/ IC50 T. b. rhodesiense): > 20; selectivity ratio (P. falciparum strain K1): 48; IC50 (in vitro): 27.9 µM
22 | COc1ccc2[nH]c([S+]([O-])Cc3ncc(C)c(OC)c3C)nc2c1 (stereo not shown) [Omeprazole] | > 86.9 | 51.8 | 90.9 | > 86.9 | 13.2 | 68.3 | 126 | –
23 | Fc1ccc([C@@H]2CCNC[C@H]2COc2ccc3c(c2)OCO3)cc1 [Paroxetine] | > 9.11 | 1.13 | > 273 | – | 9.23 | 14.4 | 13.8 | selectivity ratio ([2]; rat): 12; MCC at 96 h [4, 11]: 30.4 µM
24 | Nc1nc2c(ncn2CCC(CO)CO)c(=O)[nH]1 [Penciclovir] | > 118 | > 395 | > 395 | > 118 | 169 | 254 | 220 | –
25 | Cc1nc2ccccn2c(=O)c1CCN1CCC(C(=O)c2ccc(F)cc2)CC1 [Pirenperone] | > 76.2 | 30 | 162 | – | 4.35 | 128 | – | IC50 at 96 h [4, 12]: > 76.2 µM; IC50 (in vitro; [14]): 232 µM
26 | CN1CCC(=C2c3ccccc3CCc3sccc32)CC1 [Pizotifen] | > 33.9 | 3.99 | 215 | – | 1.86 | 30.6 | – | selectivity ratio ([2]; rat): 11; IC50 at 96 h [4, 12]: > 102 µM; IC50 (in vitro; [14]): 45 µM
